Data taken from patent US11207325B2, “Triazolopyrimidine compounds and uses thereof” (Novartis AG, priority 2014, dated 2021).

test system: H3K27 methylation in G401 cell; assay: ELISA (H3K27 methylation) assay; assay type: cell-based; conditions: Homo sapiens, G-401; ELISA Qualified assay (H3K27 methylation); read-out: (c) IC50 (μM), ELISA Qualified
Description: ELISA (H3K27 Methylation) Assay

SMILES	IC50 [µM]
Fc1ccc2c(c1CNc1ncc(-c3cccnc3C(F)F)c3nncn13)CCO2 [Example 168, 8-(2-(difluoromethyl)pyridin-3-yl)-N-((5-fluoro-2,3-dihydrobenzofuran-4-yl)methyl)-[1,2,4]triazolo[4,3-c]pyrimidin-5-amine]	0.002
Cn1nccc1-c1cnc(NCc2c(F)ccc3c2CCO3)n2cnnc12 [Example 169, N-((5-fluoro-2,3-dihydrobenzofuran-4-yl)methyl)-8-(1-methyl-1H-pyrazol-5-yl)-[1,2,4]triazolo[4,3-c]pyrimidin-5-amine]	0.0029
Cn1cc(-c2cnc(NCc3c(F)ccc4c3CCO4)n3cnnc23)c(C(F)(F)F)n1 [Example 170, N-((5-fluoro-2,3-dihydrobenzofuran-4-yl)methyl)-8-(1-methyl-3-(trifluoromethyl)-1H-pyrazol-4-yl)-[1,2,4]triazolo[4,3-c]pyrimidin-5-amine]	0.0232
CC(=O)NCc1ccc(-c2cnc(NCc3c(F)ccc4c3CCO4)n3cnnc23)cn1 [Example 171, N-((5-(5-(((5-fluoro-2,3-dihydrobenzofuran-4-yl)methyl)amino)-[1,2,4]triazolo[4,3-c]pyrimidin-8-yl)pyridin-2-yl)methyl)acetamide]	0.0265
COc1ncc(-c2cnc(NCc3c(F)ccc4c3CCO4)n3cnnc23)cn1 [Example 174, N-((5-fluoro-2,3-dihydrobenzofuran-4-yl)methyl)-8-(2-methoxypyrimidin-5-yl)-[1,2,4]triazolo[4,3-c]pyrimidin-5-amine]	0.0042
Cc1nn(C2CC2)c(C)c1-c1cnc(NCc2c(F)ccc3c2CCO3)n2cnnc12 [Example 179, 8-(1-cyclopropyl-3,5-dimethyl-1H-pyrazol-4-yl)-N-((5-fluoro-2,3-dihydrobenzofuran-4-yl)methyl)-[1,2,4]triazolo[4,3-c]pyrimidin-5-amine]	0.0091
Fc1ccc2c(c1CNc1ncc(-c3ccnc(C(F)(F)F)c3)c3nncn13)CCO2 [Example 185, N-((5-fluoro-2,3-dihydrobenzofuran-4-yl)methyl)-8-(2-(trifluoromethyl)pyridin-4-yl)-[1,2,4]triazolo[4,3-c]pyrimidin-5-amine]	0.0468
Cc1nn(C[C@@H](C)O)c(C)c1-c1cnc(NCc2c(F)ccc3c2CCO3)n2cnnc12 [Example 186, (2R)-1-(4-(5-(((5-fluoro-2,3-dihydrobenzofuran-4-yl)methyl)amino)-[1,2,4]triazolo[4,3-c]pyrimidin-8-yl)-3,5-dimethyl-1H-pyrazol-1-yl)propan-2-ol]	0.0068
Cc1nn(C[C@H](C)O)c(C)c1-c1cnc(NCc2c(F)ccc3c2CCO3)n2cnnc12 [Example 187, (2S)-1-(4-(5-(((5-fluoro-2,3-dihydrobenzofuran-4-yl)methyl)amino)-[1,2,4]triazolo[4,3-c]pyrimidin-8-yl)-3,5-dimethyl-1H-pyrazol-1-yl)propan-2-ol]	0.012
Cc1c(-c2cnc(NCc3c(F)ccc4c3CCO4)n3cnnc23)cnn1C(C)C [Example 188, N-((5-fluoro-2,3-dihydrobenzofuran-4-yl)methyl)-8-(1-isopropyl-5-methyl-1H-pyrazol-4-yl)-[1,2,4]triazolo[4,3-c]pyrimidin-5-amine]	0.0036
Cc1c(-c2cnc(NCc3c(F)ccc4c3CCO4)n3cnnc23)cnn1CCO [Example 189, 2-(4-(5-(((5-fluoro-2,3-dihydrobenzofuran-4-yl)methyl)amino)-[1,2,4]triazolo[4,3-c]pyrimidin-8-yl)-5-methyl-1H-pyrazol-1-yl)ethanol]	0.0052
Cc1nn(CCO)cc1-c1cnc(NCc2c(F)ccc3c2CCO3)n2cnnc12 [Example 190, 2-(4-(5-(((5-fluoro-2,3-dihydrobenzofuran-4-yl)methyl)amino)-[1,2,4]triazolo[4,3-c]pyrimidin-8-yl)-3-methyl-1H-pyrazol-1-yl)ethanol]	0.0025
Fc1ccc2c(c1CNc1ncc(-c3ccnn3C3CC3)c3nncn13)CCO2 [Example 192, 8-(1-cyclopropyl-1H-pyrazol-5-yl)-N-((5-fluoro-2,3-dihydrobenzofuran-4-yl)methyl)-[1,2,4]triazolo[4,3-c]pyrimidin-5-amine]	0.0104
FCc1ncccc1-c1cnc(NCc2c(F)ccc3c2CCO3)n2cnnc12 [Example 193, N-((5-fluoro-2,3-dihydrobenzofuran-4-yl)methyl)-8-(2-(fluoromethyl)pyridin-3-yl)-[1,2,4]triazolo[4,3-c]pyrimidin-5-amine]	0.0054

The next lines start with the values.

IC50 [µM]	SMILES
0.0273	Fc1ccc2c(c1CNc1ncc(-c3ccncc3Cl)c3nncn13)CCO2 [Example 162, 8-(3-chloropyridin-4-yl)-N-((5-fluoro-2,3-dihydrobenzofuran-4-yl)methyl)-[1,2,4]triazolo[4,3-c]pyrimidin-5-amine]
0.0393	Cc1ccc(-c2cnc(NCc3c(F)ccc4c3CCO4)n3cnnc23)c(C)n1 [Example 167, 8-(2,6-dimethylpyridin-3-yl)-N-((5-fluoro-2,3-dihydrobenzofuran-4-yl)methyl)-[1,2,4]triazolo[4,3-c]pyrimidin-5-amine]
0.0044	Cc1c(-c2cnc(NCc3c(F)ccc4c3CCO4)n3cnnc23)cnn1C [Example 172, 8-(1,5-dimethyl-1H-pyrazol-4-yl)-N-((5-fluoro-2,3-dihydrobenzofuran-4-yl)methyl)-[1,2,4]triazolo[4,3-c]pyrimidin-5-amine]
0.0152	Cc1cc(C2CC2)ncc1-c1cnc(NCc2c(F)ccc3c2CCO3)n2cnnc12 [Example 173, 8-(6-cyclopropyl-4-methylpyridin-3-yl)-N-((5-fluoro-2,3-dihydrobenzofuran-4-yl)methyl)-[1,2,4]triazolo[4,3-c]pyrimidin-5-amine]
0.0034	COc1ncc(-c2cnc(NCc3c(F)ccc4c3CCO4)n3cnnc23)c(C)n1 [Example 175, N-((5-fluoro-2,3-dihydrobenzofuran-4-yl)methyl)-8-(2-methoxy-4-methylpyrimidin-5-yl)-[1,2,4]triazolo[4,3-c]pyrimidin-5-amine]
0.0046	Cc1ncncc1-c1cnc(NCc2c(F)ccc3c2CCO3)n2cnnc12 [Example 176, N-((5-fluoro-2,3-dihydrobenzofuran-4-yl)methyl)-8-(4-methylpyrimidin-5-yl)-[1,2,4]triazolo[4,3-c]pyrimidin-5-amine]
0.0044	Cc1nccc(-c2cnc(NCc3c(F)ccc4c3CCO4)n3cnnc23)c1C [Example 177, 8-(2,3-dimethylpyridin-4-yl)-N-((5-fluoro-2,3-dihydrobenzofuran-4-yl)methyl)-[1,2,4]triazolo[4,3-c]pyrimidin-5-amine]
0.0114	Cc1cc(C#N)ccc1-c1cnc(NCc2c(F)ccc3c2CCO3)n2cnnc12 [Example 178, 4-(5-(((5-fluoro-2,3-dihydrobenzofuran-4-yl)methyl)amino)-[1,2,4]triazolo[4,3-c]pyrimidin-8-yl)-3-methylbenzonitrile]
0.0124	Cc1c(-c2cnc(NCc3c(F)ccc4c3CCO4)n3cnnc23)ccnc1F [Example 180, N-((5-fluoro-2,3-dihydrobenzofuran-4-yl)methyl)-8-(2-fluoro-3-methylpyridin-4-yl)-[1,2,4]triazolo[4,3-c]pyrimidin-5-amine]
0.0208	Cc1c(-c2cnc(NCc3c(F)ccc4c3CCO4)n3cnnc23)ccnc1C(F)F [Example 181, 8-(2-(difluoromethyl)-3-methylpyridin-4-yl)-N-((5-fluoro-2,3-dihydrobenzofuran-4-yl)methyl)-[1,2,4]triazolo[4,3-c]pyrimidin-5-amine]
0.0025	Cc1c(-c2cnc(NCc3c(F)ccc4c3CCO4)n3cnnc23)ccnc1CF [Example 182, N-((5-fluoro-2,3-dihydrobenzofuran-4-yl)methyl)-8-(2-(fluoromethyl)-3-methylpyridin-4-yl)-[1,2,4]triazolo[4,3-c]pyrimidin-5-amine]
0.0106	Cc1cnc(F)cc1-c1cnc(NCc2c(F)ccc3c2CCO3)n2cnnc12 [Example 183, N-((5-fluoro-2,3-dihydrobenzofuran-4-yl)methyl)-8-(2-fluoro-5-methylpyridin-4-yl)-[1,2,4]triazolo[4,3-c]pyrimidin-5-amine]
0.0777	Cc1cnc(C(F)(F)F)cc1-c1cnc(NCc2c(F)ccc3c2CCO3)n2cnnc12 [Example 184, N-((5-fluoro-2,3-dihydrobenzofuran-4-yl)methyl)-8-(5-methyl-2-(trifluoromethyl)pyridin-4-yl)-[1,2,4]triazolo[4,3-c]pyrimidin-5-amine]
0.0344	Fc1ccc2c(c1CNc1ncc(-c3cncnc3C(F)F)c3nncn13)CCO2 [Example 191, 8-(4-(difluoromethyl)pyrimidin-5-yl)-N-((5-fluoro-2,3-dihydrobenzofuran-4-yl)methyl)-[1,2,4]triazolo[4,3-c]pyrimidin-5-amine]
0.0241	Cc1cc(-c2cnc(NCc3c(F)ccc4c3CCO4)n3cnnc23)c(C)cn1 [Example 194, 8-(2,5-dimethylpyridin-4-yl)-N-((5-fluoro-2,3-dihydrobenzofuran-4-yl)methyl)-[1,2,4]triazolo[4,3-c]pyrimidin-5-amine]
0.0024	Cc1nn(C)cc1-c1cnc(NCc2c(F)ccc3c2CCO3)n2cnnc12 [Example 195, 8-(1,3-dimethyl-1H-pyrazol-4-yl)-N-((5-fluoro-2,3-dihydrobenzofuran-4-yl)methyl)-[1,2,4]triazolo[4,3-c]pyrimidin-5-amine]
0.0263	CCOc1cc(C)c(-c2cnc(NCc3c(F)ccc4c3CCO4)n3cnnc23)cn1 [Example 196, 8-(6-ethoxy-4-methylpyridin-3-yl)-N-((5-fluoro-2,3-dihydrobenzofuran-4-yl)methyl)-[1,2,4]triazolo[4,3-c]pyrimidin-5-amine]
0.0149	Cc1cc(OC(F)F)ncc1-c1cnc(NCc2c(F)ccc3c2CCO3)n2cnnc12 [Example 197, 8-(6-(difluoromethoxy)-4-methylpyridin-3-yl)-N-((5-fluoro-2,3-dihydrobenzofuran-4-yl)methyl)-[1,2,4]triazolo[4,3-c]pyrimidin-5-amine]
0.0078	Cc1cnc(C(F)F)cc1-c1cnc(NCc2c(F)ccc3c2CCO3)n2cnnc12 [Example 198, 8-(2-(difluoromethyl)-5-methylpyridin-4-yl)-N-((5-fluoro-2,3-dihydrobenzofuran-4-yl)methyl)-[1,2,4]triazolo[4,3-c]pyrimidin-5-amine]
